# Experimental data published in ChEMBL document CHEMBL1156369, “New acetophenone glucosides isolated from extracts of Helichrysum italicum with antiinflammatory activity” (2001).
# Calls of active or inactive are those of the source. No cut-off for these calls is given here.
# Tested on: Mus musculus
# Assay: Antiinflammatory activity against TPA-induced ear edema in mouse at 0.5 mg/ear topically
# Assay type: functional
row,Structure (SMILES),Activity
1,CC(=O)c1ccc(O[C@@H]2O[C@H](CO)[C@@H](O)[C@H](O)[C@H]2O)c(CC=C(C)C)c1,inactive
2,CC(=O)c1ccc(O)c(CC=C(C)C)c1,inactive
3,C=C(CO[C@@H]1O[C@H](CO)[C@@H](O)[C@H](O)[C@H]1O)[C@@H]1Cc2cc(C(C)=O)ccc2O1,inactive
4,CC(=O)c1ccc(O[C@@H]2O[C@H](CO)[C@@H](O)[C@H](O)[C@H]2O)c(CCO)c1,inactive
5,C=C(C)C(O)Cc1cc(C(C)=O)ccc1O (stereo not drawn),68%
6,Cc1occc(=O)c1O[C@@H]1O[C@H](CO)[C@@H](O)[C@H](O)[C@H]1O,inactive
7,C=C(CO)[C@@H]1Cc2cc(C(C)=O)ccc2O1 [BITALIN A],50%

# Tested on: Mus musculus
# Assay: Antiinflammatory activity against TPA-induced ear edema in mouse assessed per ear drug treated topically
# Assay type: functional
row,Structure (SMILES),ID50 [µmol]
1,C=C(C)C(O)Cc1cc(C(C)=O)ccc1O (stereo not drawn),0.63
